EC50 data for three compounds are collected here from patent US9409922B2, “Imidazopyridine macrocycles as inhibitors of human immunodeficiency virus replication” (priority 2014, dated 2016).

This assay relates to NL-RLuc virus. Put plainly: Inhibition of HIV replication: NL-RLuc reporter virus in MT-2 cells, luciferase readout. The format is cell-based. Conditions: Human immunodeficiency virus 1, MT2, 120 h, MT-2 cells infected with NL-RLuc virus, 5 days of incubation, 10% FBS, at least 2 experiments. The essentials:
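Renilla luciferase reporter virus (NL4-3 nef replaced), produced in 293T cells, infected MT-2 cells with serial compound dilutions for 5 days in RPMI 1640 with 10% FBS, 10 mM HEPES pH 7.55. Luciferase measured; EC50 from median effect equation, at least 2 experiments.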
One may read the EC50 as the concentration giving half of the maximal effect. For the compound `Cc1c([C@H](OC(C)(C)C)C(=O)O)c2n3cc(nc3c1C(F)F)-c1cccc(c1)-c1cc(F)ccc1O[C@@H](C)CCCCOC1(C)CCN2CC1` [Example 63, (2S)-2-(tert-Butoxy)-2-[(22S)-5-(difluoromethyl)-17-fluoro-4,22,28-trimethyl-21,27-dioxa-1,7,34-triazahexacyclo[26.2.2.1^6,^9.1^10,^14.0^2,^7.0^15,^20]tetratriaconta-2,4,6(34),8,10(33),11,13,15(20),16,18-decaen-3-yl]acetic acid], a half-maximal effect (EC50) was put at 18 nM.
Regarding `CC(=O)c1c(C)c([C@H](OC(C)(C)C)C(=O)O)c2n3cc(nc13)-c1cccc(c1)-c1cc(F)ccc1O[C@@H](C)CCCCOC1(C)CCN2CC1` [Example 64, (2S)-2-[(22S)-5-Acetyl-17-fluoro-4,22,28-trimethyl-21,27-dioxa-1,7,34-triazahexacyclo[26.2.2.1^6,^9.1^10,^14.0^2,^7.0^15,^20]tetratriaconta-2,4,6(34),8,10(33),11,13,15(20),16,18-decaen-3-yl]-2-(tert-butoxy)acetic acid], it took 6 nM to reach a half-maximal effect (EC50).
With `Cc1c([C@H](OC(C)(C)C)C(=O)O)c2n3cc(nc3c1C(C)(C)O)-c1cccc(c1)-c1cc(F)ccc1O[C@@H](C)CCCCOC1(C)CCN2CC1` [Example 65, (2S)-2-(tert-Butoxy)-2-[(22S)-17-fluoro-5-(2-hydroxypropan-2-yl)-4,22,28-trimethyl-21,27-dioxa-1,7,34-triazahexacyclo[26.2.2.1^6,^9.1^10,^14.0^2,^7.0^15,^20]tetratriaconta-2,4,6(34),8,10(33),11,13,15(20),16,18-decaen-3-yl]acetic acid] the figure was 6 nM.
